Experiment [1] deals with T1, recombinant form of Glutaminase 1 (GAC) (Homo sapiens, UniProt O94925). In words: Recombinant Enzyme Assay (GAC coupled to GDH, NADH absorbance, no preincubation). Format: biochemical. The note with it: no preincubation; read-out: GAC Delta N2 IC50 no preinc. In short, it runs like this: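 GAC (4 nM) in Tris-HCl pH 8.0 with 150 mM K2HPO4, EDTA, BSA, DTT, plus 4 units/ml GDH and 4 mM ADP, without preincubation. Absorbance at 340 nm was read kinetically for 15 min at 20° C. Slopes (mAU/min) were compared with DMSO-only and control-compound wells on the same plate.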

Experiment [2] addresses T1, recombinant form of Glutaminase 1 (GAC). The experiment in a line: Recombinant Enzyme Assay - Time Dependence (60 minutes enzyme/compound preincubation). In kind it is biochemical. How it is done: The enzyme/compound mix was sealed with sealing foil (USA Scientific) and allowed to incubate, with mild agitation, for 60 minutes at 20° C. Enzymatic reaction was started with the addition of 50 μL of substrate solution (50 mM Tris-HCl pH 8.0, 0.2 mM EDTA, 150 mM K2HPO4, 0.1 mg/ml BSA, 1 mM DTT, 20 mM L-glutamine, 2 mM NAD^+, and 10 ppm antifoam) and read in a Molecular Devices M5 plate reader at 20° C. The plate reader was configured to read absorbance (λ=340 nm) in kinetic mode for 15 minutes. Data was recorded as milli-absorbance units per minute and slopes were compared to a control compound and a DMSO-only control on the same plate. Compounds with slopes less than the DMSO control were considered inhibitors and plate variability was assessed using the control compound.

Where [3] appears, read: read-out: GAC Delta N2 IC50 60 min preinc.
The mark [4] stands for this setting: read-out: GAC Delta N2 IC50 60 min.

Regarding `O=C(Nc1nnc(CCCCc2nnc(NC(=O)C(O)c3cccc(Cl)c3)s2)s1)C(O)c1cccc(Cl)c1` (stereo not drawn) [Compound 306], the IC50 is 520 nM in experiment [1] and 31 nM in experiment [2] (setting [3]).

With `O=C(Cc1cccc(Br)c1)Nc1nnc(CCSCCc2nnc(NC(=O)Cc3cccc(Br)c3)s2)s1` [Compound 270], the IC50 in experiment [1] was 7400 nM; in experiment [2] (setting [3]) it was more than 5000 nM.

For the compound `O=C(Cc1ccccc1)Nc1nnc(CCCCc2nnc(NC(=O)C(O)c3cccc(Cl)c3)s2)s1` (stereo not drawn) [Compound 527], the results for the IC50 in experiment [1] and in experiment [2] (setting [3]) were 130 nM and 24 nM, respectively.

With `O=C(Nc1nnc(CCCCc2nnc(NC(=O)[C@@H](O)c3ccccc3)s2)s1)[C@@H](O)c1ccccc1` [Compound 92], the IC50 in experiment [1] stood at 380 nM; in experiment [2] (setting [3]) it was 140 nM.

As for `CC(C(=O)Nc1nnc(CCCCc2ccc(NC(=O)Cc3cccc(CNC(=O)OC(C)(C)C)c3)nn2)s1)c1ccccc1` (stereo not drawn) [Compound 489], the IC50 in experiment [2] (setting [4]) worked out at 8 nM.

As for `CCCC(=O)OCN(C(=O)Cc1cccc(CNC(=O)OC(C)(C)C)c1)c1nnc(CCCCc2ccc(NC(=O)Cc3ccccc3)nn2)s1` [Compound 552], the IC50 in experiment [2] (setting [4]) is more than 20000 nM.

For `O=C(Cc1ccccc1)Nc1ccc(CCCCc2nnc(NC(=O)C(OC(=O)CCN3CCOCC3)c3cccc(Cl)c3)s2)nn1` (stereo not drawn) [Compound 389], in experiment [2] (setting [3]), the IC50 turned out to be 84 nM.

For `CC(C(=O)Nc1nnc(CCCCc2ccc(NC(=O)Cc3cccc(CNC(=O)CC(O)C(F)(F)F)c3)nn2)s1)c1ccccc1` (stereo not drawn) [Compound 606], the IC50 in experiment [2] (setting [4]) was 7 nM.

Consider `O=C(CN1CCOCC1)NCc1ccc(CC(=O)Nc2nnc(CCCCc3ccc(NC(=O)Cc4ccccc4)nn3)s2)cc1` [Compound 442], for which, in experiment [2] (setting [4]), the IC50 amounted to 7 nM.

Regarding `Cc1ccccc1CC(=O)Nc1nnc(CCCCc2ccc(NC(=O)Cc3ccccc3F)nn2)s1` [Compound 536], the IC50 in experiment [2] (setting [4]) was 6 nM.

Regarding `CC(C)Cc1ccc(C(C)C(=O)Nc2nnc(CCCCc3ccc(NC(=O)Cc4ccccc4)nn3)s2)cc1` (stereo not drawn) [Compound 557], the IC50 in experiment [2] (setting [4]) was 25 nM.

With `CN(Cc1cc(CC(=O)Nc2nnc(CCCCc3ccc(NC(=O)Cc4ccccc4)nn3)s2)ccc1F)C(=O)OC(C)(C)C` [Compound 569], the IC50 in experiment [2] (setting [4]) was determined as 6 nM.

As to `CC(NC(=O)OC(C)(C)C)c1cccc(CC(=O)Nc2ccc(CCCCc3nnc(NC(=O)C(C)c4ccccc4)s3)nn2)c1` (stereo not drawn) [Compound 603], the IC50 in experiment [2] (setting [4]) amounted to 9 nM.

For the compound `O=C(Nc1nnc(CCCCc2nnc(NC(=O)C(O)c3cccc(Br)c3)s2)s1)C(O)c1cccc(Br)c1` (stereo not drawn) [Compound 288], the IC50 in experiment [1] amounted to 670 nM; in experiment [2] (setting [3]) it was 40 nM.

Consider `CC(C)(C)OC(=O)NCc1cc(CC(=O)Nc2nnc(CCCCc3ccc(NC(=O)Cc4ccccc4)nn3)s2)ccc1F` [Compound 492], for which, in experiment [2] (setting [4]), the IC50 is 6 nM.

Take `COC(C(=O)Nc1nnc(CCCCc2ccc(NC(=O)Cc3cccc(CNC(=O)CC(O)C(F)(F)F)c3)nn2)s1)c1ccccc1` (stereo not drawn) [Compound 604]: the IC50 in experiment [2] (setting [4]) was found to be 15 nM.

Take `CC(C)(C)OC(=O)N1CCN(Cc2cccc(CC(=O)Nc3nnc(CCSCc4nnc(NC(=O)Cc5cccc(CN6CCN(C(=O)OC(C)(C)C)CC6)c5)s4)s3)c2)CC1` [Compound 275]: the IC50 in experiment [1] worked out at 2200 nM; in experiment [2] (setting [3]), 150 nM.

Turning to `O=C(Nc1ccc(CCCCc2nnc(NC(=O)C(O)c3cccc(Cl)c3)s2)nn1)C(O)c1cccc(Cl)c1` (stereo not drawn) [Compound 446], the IC50 in experiment [2] (setting [4]) amounted to 11 nM.

`CNCc1cccc(CC(=O)Nc2nnc(CCCCc3nnc(NC(=O)Cc4ccccc4)s3)s2)c1` [Compound 393]: in experiment [2] (setting [3]), the IC50 stood at 100 nM.

Turning to `COC(C(=O)Nc1nnc(CCCCc2ccc(NC(=O)Cc3cccc(CNC(=O)CC(C)(O)C(F)(F)F)c3)nn2)s1)c1ccccc1` (stereo not drawn) [Compound 605], the IC50 in experiment [2] (setting [4]) came out at 13 nM.

Consider `CC(C(=O)Nc1ccc(CCCCc2nnc(NC(=O)C(C)c3ccccc3)s2)nn1)c1ccccc1` (stereo not drawn) [Compound 613], for which the IC50 in experiment [2] (setting [4]) is 19 nM.

`COC(C(=O)Nc1ccc(CCCCc2nnc(NC(=O)Cc3cccc(CNC(=O)OC(C)(C)C)c3)s2)nn1)c1ccccc1` (stereo not drawn) [Compound 508]: the IC50 in experiment [2] (setting [4]) amounted to 11 nM.

As to `CN(C)Cc1cccc(CC(=O)Nc2nnc(CCCCc3nnc(NC(=O)Cc4ccccc4)s3)s2)c1` [Compound 394], in experiment [2] (setting [4]), the IC50 was 88 nM.

As for `CC(C)(C)OC(=O)NCc1cccc(CC(=O)Nc2nnc(CCCCc3ccc(NC(=O)C4(C)COC(C)(C)OC4)nn3)s2)c1` [Compound 529], in experiment [2] (setting [4]), the IC50 was determined as 32 nM.

As for `CCCC(=O)OCN(C(=O)Cc1cccc(CC(=O)N2CCC(F)(F)CC2)c1)c1nnc(CCCCc2ccc(NC(=O)Cc3ccccc3)nn2)s1` [Compound 570], the IC50 in experiment [2] (setting [4]) amounted to 430 nM.

`CC(C(=O)Nc1ccc(CCCCc2nnc(NC(=O)Cc3ccccc3)s2)nn1)c1ccc(F)c(CN(C)C(=O)OC(C)(C)C)c1` (stereo not drawn) [Compound 599]: in experiment [2] (setting [4]), the IC50 is 10 nM.

With `CC(C)NC(=O)Nc1nnc(CCCCc2nnc(NC(=O)Cc3ccccc3)s2)s1` [Compound 438], the IC50 in experiment [2] (setting [4]) came out at 740 nM.

With `Nc1ccc(CCCCc2nnc(NC(=O)C(O)c3cccc(Cl)c3)s2)nn1` (stereo not drawn) [Compound 411], in experiment [2] (setting [4]), the IC50 stood at 220 nM.

With `CC(C(=O)Nc1nnc(CCCCc2ccc(NC(=O)Cc3ccccc3)nn2)s1)c1ccc(F)c(CNC(=O)OC(C)(C)C)c1` (stereo not drawn) [Compound 568], the IC50 in experiment [2] (setting [4]) stood at 9 nM.

As for `CC(NC(=O)OC(C)(C)C)c1cc(CC(=O)Nc2ccc(CCCCc3nnc(NC(=O)Cc4ccccc4)s3)nn2)ccc1F` (stereo not drawn) [Compound 654], in experiment [2] (setting [4]), the IC50 turned out to be 5 nM.

Regarding `CN(Cc1cccc(CC(=O)Nc2nnc(CCCCc3nnc(NC(=O)Cc4ccccc4)s3)s2)c1)C(=O)OC(C)(C)C` [Compound 391], in experiment [2] (setting [3]), the IC50 came out at 7 nM.

As for `CCOC(=O)NCc1cc(C(C)C(=O)Nc2nnc(CCCCc3ccc(NC(=O)Cc4ccccc4)nn3)s2)ccc1F` (stereo not drawn) [Compound 574], the IC50 in experiment [2] (setting [4]) turned out to be 6 nM.

`CC(C(=O)Nc1ccc(CCCCc2nnc(NC(=O)C(O)c3cccc(Cl)c3)s2)nn1)c1ccccc1` (stereo not drawn) [Compound 468]: the IC50 in experiment [2] (setting [4]) was found to be 16 nM.

The values are drawn from patent publication US8604016B2, “Heterocyclic inhibitors of glutaminase” (Calithera Biosciences Inc., priority 2011, dated 2013).
